Test results published in patent US20110287059A1, “HONEY ANALYSIS” (COMVITA NEW ZEALAND LIMITED, priority 2008, published 2011).

Experiment: Antioxidant activity by ABTS radical assay (Trolox Equivalent Antioxidant Capacity)
Type: biochemical
Conditions: standard
Experimental: Antioxidant activity was determined by the ABTS assay using a spectrophotometric method for antioxidant activity using the ABTS radical assay (expressed as Trolox Equivalent Antioxidant Capacity) based on the method of Miller & Rice-Evans (Miller, N.J.; Rice-Evans, C.A. 1997: Factors influencing the antioxidant activity determined by the ABTS+radical cation assay. Free Radical Research 26(3): 195-199). All samples were diluted with warm water as required to bring into the appropriate range for the assay.

With COc1ccccc1C(=O)O [2-methoxybenzoic, 2-methoxybenzoic acid] the “Antioxidant Activity by ABTS Assay, Average” value (“Antioxidant Activity” for short) (80 mg/kg) was 51.8 μmole TEAC/100 g.
For O=C(O)c1cc(O)c(O)c(O)c1 [gallic acid], the “Antioxidant Activity” value (700 mg/kg) was 1695.4 μmole TEAC/100 g.
With COC(=O)c1cc(OC)c(O)c(OC)c1 [methylsyringate, methyl syringate] the “Antioxidant Activity” value (290 mg/kg) was 85.1 μmole TEAC/100 g.
For COc1cc(C(=O)O)cc(OC)c1O [syringic acid], the “Antioxidant Activity” value (760 mg/kg) was 499.6 μmole TEAC/100 g.
